Measurements as given in patent publication US20250101041A1, “POSITIVE ALLOSTERIC MODULATORS OF THE MUSCARINIC ACETYLCHOLINE RECEPTOR M4” (Vanderbilt University, priority 2022, published 2025).

Target: T1, human mAChR M4 (Homo sapiens, UniProt P08173)
T1 construct: expressed in transfected cells; host or cells: CHO-K1 (American Type Culture Collection), stably expressing hM4 and Gqi5
T1 sequence (P08173 1-479): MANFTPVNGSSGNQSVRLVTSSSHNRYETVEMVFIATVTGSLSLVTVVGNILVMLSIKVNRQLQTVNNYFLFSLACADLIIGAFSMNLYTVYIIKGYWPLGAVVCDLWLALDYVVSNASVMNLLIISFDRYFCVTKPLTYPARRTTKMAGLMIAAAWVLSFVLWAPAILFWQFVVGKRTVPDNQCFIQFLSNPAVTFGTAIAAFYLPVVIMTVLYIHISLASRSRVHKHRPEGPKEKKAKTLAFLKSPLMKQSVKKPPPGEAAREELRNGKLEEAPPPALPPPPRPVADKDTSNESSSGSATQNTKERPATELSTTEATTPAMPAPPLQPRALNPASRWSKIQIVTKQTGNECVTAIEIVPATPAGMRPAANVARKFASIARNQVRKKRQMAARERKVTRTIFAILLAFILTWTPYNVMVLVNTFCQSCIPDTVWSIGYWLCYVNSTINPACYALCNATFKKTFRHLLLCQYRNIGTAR
Test: mAChR M4 cell-based functional assay: calcium mobilization (Fluo-4, FDSS), potentiation of EC20 acetylcholine response in hM4-Gqi5 CHO-K1 cells
Details: human M4; for Emax at 30 µM: CHO-K1, % ACh maximum at 30 μM; for EC50: potentiation of EC20 acetylcholine response, calcium mobilization
In short: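 CHO-K1 cells stably co-expressing human M4 and chimeric Gqi5, loaded with Fluo-4 AM (50 min, 37 °C). Compounds in 11-point 1:3 series added first; EC20 acetylcholine added at 144 s and again at 230 s. Calcium read on FDSS at 1 Hz; EC50 and Emax from four-parameter logistic fit of potentiated EC20 response.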

Row | Structure (SMILES) | Emax at 30 µM [%] | EC50 [µM]
1 | COc1ccncc1-c1cnc2c(c1)CN(c1nn3c(=O)ccnc3c(C)c1C)CC2 [Compound 1-140, 7-(3-(4-methoxypyridin-3-yl)-7,8-dihydro-1,6-naphthyridin-6(5H)-yl)-8,9-dimethyl-4H-pyrimido[1,2-b]pyridazin-4-one] | 89 | 0.36
2 | COCc1cc(=O)n2nc(N3CCc4ncc(-c5ccco5)cc4C3)c(C)cc2n1 [Compound 1-371, 7-(3-(furan-2-yl)-7,8-dihydro-1,6-naphthyridin-6(5H)-yl)-2-(methoxymethyl)-8-methyl-4H-pyrimido[1,2-b]pyridazin-4-one] | 92 | 0.14
3 | Cc1cncc(-c2cnc3c(c2)CN(c2nn4c(=O)cc(C)nc4c(C)c2C)CC3)c1 [Compound 1-127, 2,8,9-trimethyl-7-(3-(5-methylpyridin-3-yl)-7,8-dihydro-1,6-naphthyridin-6(5H)-yl)-4H-pyrimido[1,2-b]pyridazin-4-one] | 86 | 1.24
4 | Cc1cc2nc(C(=O)N3CC(C)(F)C3)cc(=O)n2nc1N1CCc2ncc(C(F)(F)F)cc2C1 [Compound 1-45, 2-(3-fluoro-3-methylazetidine-1-carbonyl)-8-methyl-7-(3-(trifluoromethyl)-7,8-dihydro-1,6-naphthyridin-6(5H)-yl)-4H-pyrimido[1,2-b]pyridazin-4-one] | 100 | 0.167
5 | Cc1cc2nccc(=O)n2nc1N1CCc2ncc(-c3ccsc3C=O)cc2C1 [Compound 1-415, 3-(6-(8-methyl-4-oxo-4H-pyrimido[1,2-b]pyridazin-7-yl)-5,6,7,8-tetrahydro-1,6-naphthyridin-3-yl)thiophene-2-carbaldehyde] | 86 | 0.81
6 | Cc1c(N2CCc3ncc(-c4ccc(C(F)(F)F)nc4)cc3C2)nn2c(=O)ccnc2c1C [Compound 1-90, 8,9-dimethyl-7-(3-(6-(trifluoromethyl)pyridin-3-yl)-7,8-dihydro-1,6-naphthyridin-6(5H)-yl)-4H-pyrimido[1,2-b]pyridazin-4-one] | 87 | 0.669
7 | COCc1cc(=O)n2nc(N3CCc4ncc(-c5cnn(C6CC6)c5)cc4C3)c(C)cc2n1 [Compound 1-364, 7-(3-(1-cyclopropyl-1H-pyrazol-4-yl)-7,8-dihydro-1,6-naphthyridin-6(5H)-yl)-2-(methoxymethyl)-8-methyl-4H-pyrimido[1,2-b]pyridazin-4-one] | 68 | 0.298
8 | Cc1c(N2CCc3ncc(-c4cnn(C5CC5)c4)cc3C2)nn2c(=O)ccnc2c1C [Compound 1-152, 7-(3-(1-cyclopropyl-1H-pyrazol-4-yl)-7,8-dihydro-1,6-naphthyridin-6(5H)-yl)-8,9-dimethyl-4H-pyrimido[1,2-b]pyridazin-4-one] | 80 | 0.133
9 | Cc1cc2nccc(=O)n2nc1N1CCc2ncc(Nc3cncc(F)c3)cc2C1 [Compound 2-128, 7-(3-((5-fluoropyridin-3-yl)amino)-7,8-dihydro-1,6-naphthyridin-6(5H)-yl)-8-methyl-4H-pyrimido[1,2-b]pyridazin-4-one] | 82 | 0.09
10 | Cc1cc(=O)n2nc(N3CCc4ncc(-c5cnc6ccccc6c5)cc4C3)c(C)c(C)c2n1 [Compound 1-120, 2,8,9-trimethyl-7-(3-(quinolin-3-yl)-7,8-dihydro-1,6-naphthyridin-6(5H)-yl)-4H-pyrimido[1,2-b]pyridazin-4-one] | 65 | 0.749
11 | Cc1cc(=O)n2nc(N3CCc4ncc(-c5cccnc5F)cc4C3)c(C)cc2n1 [Compound 1-69, 7-(3-(2-fluoropyridin-3-yl)-7,8-dihydro-1,6-naphthyridin-6(5H)-yl)-2,8-dimethyl-4H-pyrimido[1,2-b]pyridazin-4-one] | 87 | 0.769
12 | Cc1cc2nccc(=O)n2nc1N1CCc2ncc(N3CCOC(c4cccnc4)C3)cc2C1 (stereo not shown) [Compound 2-77, 8-methyl-7-(3-(2-(pyridin-3-yl)morpholino)-7,8-dihydro-1,6-naphthyridin-6(5H)-yl)-4H-pyrimido[1,2-b]pyridazin-4-one] | 80 | 1.27
13 | Cc1nc(S(=O)(=O)Nc2cnc3c(c2)CN(c2nn4c(=O)ccnc4cc2C)CC3)cs1 [Compound 2-119, 2-methyl-N-(6-(8-methyl-4-oxo-4H-pyrimido[1,2-b]pyridazin-7-yl)-5,6,7,8-tetrahydro-1,6-naphthyridin-3-yl)thiazole-4-sulfonamide] | 31 | –
14 | Cc1c(N2CCc3ncc(N4CCCn5nccc54)cc3C2)nn2c(=O)ccnc2c1C [Compound 2-36, 7-(3-(6,7-dihydropyrazolo[1,5-a]pyrimidin-4(5H)-yl)-7,8-dihydro-1,6-naphthyridin-6(5H)-yl)-8,9-dimethyl-4H-pyrimido[1,2-b]pyridazin-4-one] | 103 | 0.013
15 | Cc1cc2nccc(=O)n2nc1N1CCc2ncc(NC(=O)C3COC3)cc2C1 [Compound 2-109, N-(6-(8-methyl-4-oxo-4H-pyrimido[1,2-b]pyridazin-7-yl)-5,6,7,8-tetrahydro-1,6-naphthyridin-3-yl)oxetane-3-carboxamide] | 30 | –
16 | Cc1c(N2CCc3ncc(-c4ccnnc4)cc3C2)nn2c(=O)ccnc2c1C [Compound 1-141, 8,9-dimethyl-7-(3-(pyridazin-4-yl)-7,8-dihydro-1,6-naphthyridin-6(5H)-yl)-4H-pyrimido[1,2-b]pyridazin-4-one] | 96 | 0.41
17 | Cc1ccc(-c2cnc3c(c2)CN(c2nn4c(=O)c(Br)cnc4cc2C)CC3)cn1 [Compound 1-78, 3-bromo-8-methyl-7-(3-(6-methylpyridin-3-yl)-7,8-dihydro-1,6-naphthyridin-6(5H)-yl)-4H-pyrimido[1,2-b]pyridazin-4-one] | 79 | 0.152
18 | Cc1cc(=O)n2nc(N3CCc4ncc(-c5ccccc5F)cc4C3)c(C)cc2n1 [Compound 1-234, 7-(3-(2-fluorophenyl)-7,8-dihydro-1,6-naphthyridin-6(5H)-yl)-2,8-dimethyl-4H-pyrimido[1,2-b]pyridazin-4-one] | 71 | 0.235
19 | Cc1ccc(-c2cnc3c(c2)CN(c2nn4c(=O)cc(C)nc4c(C)c2C)CC3)cc1 [Compound 1-135, 2,8,9-trimethyl-7-(3-(p-tolyl)-7,8-dihydro-1,6-naphthyridin-6(5H)-yl)-4H-pyrimido[1,2-b]pyridazin-4-one] | 97 | 0.626
20 | Cc1cc(=O)n2nc(N3CCc4ncc(-c5cnn(C6COC6)c5)cc4C3)c(C)c(C)c2n1 [Compound 1-179, 2,8,9-trimethyl-7-(3-(1-(oxetan-3-yl)-1H-pyrazol-4-yl)-7,8-dihydro-1,6-naphthyridin-6(5H)-yl)-4H-pyrimido[1,2-b]pyridazin-4-one] | 85 | 0.805
21 | COc1cc(F)ccc1Nc1cnc2c(c1)CN(c1nn3c(=O)ccnc3cc1C)CC2 [Compound 2-74, 7-(3-((4-fluoro-2-methoxyphenyl)amino)-7,8-dihydro-1,6-naphthyridin-6(5H)-yl)-8-methyl-4H-pyrimido[1,2-b]pyridazin-4-one] | 62 | 0.398
22 | COc1cnccc1-c1cnc2c(c1)CN(c1nn3c(=O)ccnc3c(C)c1C)CC2 [Compound 1-269, 7-(3-(3-methoxypyridin-4-yl)-7,8-dihydro-1,6-naphthyridin-6(5H)-yl)-8,9-dimethyl-4H-pyrimido[1,2-b]pyridazin-4-one] | 88 | 0.211
23 | Cc1cc2nccc(=O)n2nc1N1CCc2ncc(Nc3cncc(Cl)c3)cc2C1 [Compound 2-142, 7-(3-((5-chloropyridin-3-yl)amino)-7,8-dihydro-1,6-naphthyridin-6(5H)-yl)-8-methyl-4H-pyrimido[1,2-b]pyridazin-4-one] | 66 | 0.182
24 | Cc1cc2nccc(=O)n2nc1N1CCc2ncc(Nc3ccc(F)cc3)cc2C1 [Compound 2-63, 7-(3-((4-fluorophenyl)amino)-7,8-dihydro-1,6-naphthyridin-6(5H)-yl)-8-methyl-4H-pyrimido[1,2-b]pyridazin-4-one] | 91 | 0.079
25 | Cc1cc(=O)n2nc(N3CCc4ncc(-c5cc(F)ncc5F)cc4C3)c(C)cc2n1 [Compound 1-258, 7-(3-(2,5-difluoropyridin-4-yl)-7,8-dihydro-1,6-naphthyridin-6(5H)-yl)-2,8-dimethyl-4H-pyrimido[1,2-b]pyridazin-4-one] | 67 | 0.363
26 | COc1cc(C)c(-c2cnc3c(c2)CN(c2nn4c(=O)ccnc4cc2C)CC3)cn1 [Compound 1-387, 7-(3-(6-methoxy-4-methylpyridin-3-yl)-7,8-dihydro-1,6-naphthyridin-6(5H)-yl)-8-methyl-4H-pyrimido[1,2-b] pyridazin-4-one] | 92 | 0.046
27 | Cc1cc2nc(C(F)F)cc(=O)n2nc1N1CCc2ncc(-c3cnn(C)c3)cc2C1 [Compound 1-35, 2-(Difluoromethyl)-8-methyl-7-(3-(1-methyl-1H-pyrazol-4-yl)-7,8-dihydro-1,6-naphthyridin-6(5H)-yl)-4H-pyrimido[1,2-b]pyridazin-4-one] | 92 | 0.08
